The text below walks through data of patent US20240199587A1, “HETEROCYCLIC COMPOUNDS” (Hoffmann-La Roche Inc., priority 2021, published 2024).

This assay deals with T1, MAGL (Homo sapiens, UniProt Q99685).
T1 sequence (Q99685 1-303): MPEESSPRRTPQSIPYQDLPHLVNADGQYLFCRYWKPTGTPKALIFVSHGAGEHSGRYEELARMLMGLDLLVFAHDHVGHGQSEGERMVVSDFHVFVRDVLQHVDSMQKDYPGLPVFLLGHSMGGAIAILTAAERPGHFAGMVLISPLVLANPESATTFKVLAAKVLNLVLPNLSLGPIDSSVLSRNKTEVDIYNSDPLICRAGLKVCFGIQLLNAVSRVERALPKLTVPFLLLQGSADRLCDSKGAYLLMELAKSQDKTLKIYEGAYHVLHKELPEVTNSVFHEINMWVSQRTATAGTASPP
Description: 2-AG assay (MAGL inhibitory activity, hydrolysis of 2-arachidonoylglycerol to arachidonic acid followed by mass spectrometry). Type of assay: biochemical. The following applies: 8 μM 2-arachidonoylglycerol, 15 min pre-incubation, 30 min incubation at RT, RapidFire MS readout. An outline of the steps: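 Arachidonic acid released from 8 μM 2-arachidonoylglycerol was quantified by online SPE triple-quadrupole MS (negative ESI, 303.1→259.1), normalised to d8-arachidonic acid internal standard. Reaction ran 30 min at RT after 15 min RT compound pre-incubation with […] MAGL in TRIS/EDTA/Tween-20 buffer, 2.5% DMSO.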
What is called IC50 is the concentration that gives 50% inhibition. A high value points to a need for much substance. The compound `O=C(N1CC(Oc2nnccc2C(F)(F)F)C1)N1CC2(CC(n3cnc(C4CC4)n3)C2)C1` [Example 322, [6-(3-cyclopropyl-1,2,4-triazol-1-yl)-2-azaspiro[3.3]heptan-2-yl]-[3-[4-(trifluoromethyl)pyridazin-3-yl]oxyazetidin-1-yl]methanone] showed a concentration for half-maximal inhibition (IC50) of 340 nM.

For the compound `NC(=O)c1ccccc1S(=O)(=O)N1CC2(CN(C(=O)N3CC4(CC(n5cnc(C6CC6)n5)C4)C3)C2)C1` [Example 323, 2-[[6-[6-(3-cyclopropyl-1,2,4-triazol-1-yl)-2-azaspiro[3.3]heptane-2-carbonyl]-2,6-diazaspiro[3.3]heptan-2-yl]sulfonyl]benzamide], the midpoint of inhibition, the IC50, lay at 365 nM.

`O=C(O)c1ccc(S(=O)(=O)N2CC3(CN(C(=O)N4CC5(CC(n6cnc(C7CC7)n6)C5)C4)C3)C2)cc1` [Example 324]: 402 nM corresponded to half-maximal inhibition (IC50).

`O=C(N1CCC(CNS(=O)(=O)c2ccccc2)CC1)N1CC2(CC(n3cnc(C4CC4)n3)C2)C1` [Example 325, N-[[1-[6-(3-cyclopropyl-1,2,4-triazol-1-yl)-2-azaspiro[3.3]heptane-2-carbonyl]-4-piperidyl]methyl]benzene-sulfonamide] came in with an IC50 of 482 nM.

For `NC(=O)[C@@H](c1ccc(F)cc1)N1CCN(C(=O)N2CC3(CC(n4cnc(C5CC5)n4)C3)C2)CC1` [Example 326, (2R)-2-[4-[6-(3-cyclopropyl-1,2,4-triazol-1-yl)-2-azaspiro[3.3]heptane-2-carbonyl]piperazin-1-yl]-2-(4-fluorophenyl)acetamide], the IC50 stood at 583 nM.

As for `O=C(O)c1ccc(F)c(S(=O)(=O)N2CC3(CN(C(=O)N4CC5(CC(n6cnc(C7CC7)n6)C5)C4)C3)C2)c1` [Example 327], half-maximal inhibition (IC50) required 611 nM.

With `CCc1ncnn1C1CC2(C1)CN(C(=O)N1CC3(CC(Cc4ccc(F)cc4F)C3)C1)C2` [Example 328, [6-[(2,4-difluorophenyl)methyl]-2-azaspiro[3.3]heptan-2-yl]-[6-(5-ethyl-1,2,4-triazol-1-yl)-2-azaspiro[3.3]heptan-2-yl]methanone], half-maximal inhibition (IC50) required 673 nM.

On to `O=C(N1CC2(CC(n3cnc(C4CC4)n3)C2)C1)N1CC2(C1)CN(S(=O)(=O)CC(F)(F)F)C2` [Example 329, [6-(3-cyclopropyl-1,2,4-triazol-1-yl)-2-azaspiro[3.3]heptan-2-yl]-[2-(2,2,2-trifluoroethylsulfonyl)-2,6-diazaspiro[3.3]heptan-6-yl]methanone], for which the half-inhibitory concentration (IC50) turned out to be 743 nM.

`CNC(=O)[C@H](c1ccc(F)cc1)N1CCN(C(=O)N2CC3(CC(n4cnc(C5CC5)n4)C3)C2)CC1` [Example 330, (2S)-2-[4-[6-(3-cyclopropyl-1,2,4-triazol-1-yl)-2-azaspiro[3.3]heptane-2-carbonyl]piperazin-1-yl]-2-(4-fluorophenyl)-N-methyl-acetamide]: it took 744 nM to reach half-maximal inhibition (IC50).

The compound `Cn1cc(S(=O)(=O)N2CC3(CN(C(=O)N4CC5(CC(n6cnc(C7CC7)n6)C5)C4)C3)C2)cn1` [Example 331, [6-(3-cyclopropyl-1,2,4-triazol-1-yl)-2-azaspiro[3.3]heptan-2-yl]-[2-(1-methylpyrazol-4-yl)sulfonyl-2,6-diazaspiro[3.3]heptan-6-yl]methanone] registered an IC50 of 797 nM.

Turning to `NC(=O)C(c1ccc(F)cc1)N1CCN(C(=O)N2CC3(CC(n4cnc(C5CC5)n4)C3)C2)CC1` (stereo not shown) [Example 332, 2-[4-[6-(3-cyclopropyl-1,2,4-triazol-1-yl)-2-azaspiro[3.3]heptane-2-carbonyl]piperazin-1-yl]-2-(4-fluorophenyl)acetamide], the IC50 was 904 nM.

In turn, `O=C(N1CC(c2nnc(CC3CC3)[nH]2)C1)N1CC2(CC(n3cnc(C4CC4)n3)C2)C1` [Example 333, [3-[5-(cyclopropylmethyl)-4H-1,2,4-triazol-3-yl]azetidin-1-yl]-[6-(3-cyclopropyl-1,2,4-triazol-1-yl)-2-azaspiro[3.3]heptan-2-yl]methanone] came in with an IC50 of 949 nM.

On to `CNC(=O)c1ccccc1S(=O)(=O)N1CC2(CN(C(=O)N3CC4(CC(n5cnc(C6CC6)n5)C4)C3)C2)C1` [Example 334], for which it took 993 nM to reach half-maximal inhibition (IC50).

On to `CNC(=O)[C@@H](c1ccc(F)cc1)N1CCN(C(=O)N2CC3(CC(n4cnc(C5CC5)n4)C3)C2)CC1` [Example 335, (2R)-2-[4-[6-(3-cyclopropyl-1,2,4-triazol-1-yl)-2-azaspiro[3.3]heptane-2-carbonyl]piperazin-1-yl]-2-(4-fluorophenyl)-N-methyl-acetamide], for which the concentration for half-maximal inhibition (IC50) is 1400 nM.

As for `O=C(N1CCC(NS(=O)(=O)c2ccc(F)cc2)CC1)N1CC2(CC(n3cnc(C4CC4)n3)C2)C1` [Example 336, N-[1-[6-(3-cyclopropyl-1,2,4-triazol-1-yl)-2-azaspiro[3.3]heptane-2-carbonyl]-4-piperidyl]-4-fluoro-benzenesulfonamide], the IC50 worked out at 1440 nM.

As for `O=C(N1CC2(CC(n3cnc(C4CC4)n3)C2)C1)N1CC2(C1)CN(C(=O)C(F)(F)F)C2` [Example 337, 1-[2-[6-(3-cyclopropyl-1,2,4-triazol-1-yl)-2-azaspiro[3.3]heptane-2-carbonyl]-2,6-diazaspiro[3.3]heptan-6-yl]-2,2,2-trifluoro-ethanone], the IC50 was 1830 nM.

In turn, `O=C(O)c1ccccc1S(=O)(=O)N1CC2(CN(C(=O)N3CC4(CC(n5cnc(C6CC6)n5)C4)C3)C2)C1` [Example 338, 2-[[6-[6-(3-cyclopropyl-1,2,4-triazol-1-yl)-2-azaspiro[3.3]heptane-2-carbonyl]-2,6-diazaspiro[3.3]heptan-2-yl]sulfonyl]benzoic acid] had an IC50 of 2150 nM.

Compound `O=C(N1CC2(CC(n3cnc(C4CC4)n3)C2)C1)N1CC2(C1)CN(S(=O)(=O)C1CS(=O)(=O)C1)C2` [Example 339, [6-(3-cyclopropyl-1,2,4-triazol-1-yl)-2-azaspiro[3.3]heptan-2-yl]-[2-(1,1-dioxothietan-3-yl)sulfonyl-2,6-diazaspiro[3.3]heptan-6-yl]methanone] came in with an IC50 of 3010 nM.

`CNC(=O)C(c1ccc(F)cc1)N1CCN(C(=O)N2CC3(CC(n4cnc(C5CC5)n4)C3)C2)CC1` (stereo not shown) [Example 340, 2-[4-[6-(3-cyclopropyl-1,2,4-triazol-1-yl)-2-azaspiro[3.3]heptane-2-carbonyl]piperazin-1-yl]-2-(4-fluorophenyl)-N-methyl-acetamide] displayed an IC50 of 3190 nM.

As for `O=C(N1CC2(CC(Cc3ccc(F)cc3F)C2)C1)N1CC2(CC(c3ccc(F)cc3)C2)C1` [Example 343, [6-[(2,4-difluorophenyl)methyl]-2-azaspiro[3.3]heptan-2-yl]-[6-(4-fluorophenyl)-2-azaspiro[3.3]heptan-2-yl]methanone], the IC50 worked out at 491 nM.

Compound `CS(=O)(=O)c1cc(Cl)ccc1-c1ccc(C2CN(C(=O)N3CC4(CC(c5cnc(C(F)(F)F)nc5)C4)C3)C2)cc1` [Example 344, [3-[4-(4-chloro-2-methylsulfonyl-phenyl)phenyl]azetidin-1-yl]-[6-[2-(trifluoromethyl)pyrimidin-5-yl]-2-azaspiro[3.3]heptan-2-yl]methanone] showed an IC50 of 1.62 nM.

The compound `O=C(N1CC2(CC(Cc3ccc(F)cc3F)C2)C1)N1CC2(CC(c3ccc(S(=O)(=O)C(F)(F)F)cc3)C2)C1` [Example 345, [6-[(2,4-difluorophenyl)methyl]-2-azaspiro[3.3]heptan-2-yl]-[6-[4-(trifluoromethylsulfonyl)phenyl]-2-azaspiro[3.3]heptan-2-yl]methanone] yielded an IC50 of 28.9 nM.

`CS(=O)(=O)c1ccc(C2CC3(C2)CN(C(=O)N2CC4(CC(Cc5ccc(F)cc5F)C4)C2)C3)cc1` [Example 346, [6-[(2,4-difluorophenyl)methyl]-2-azaspiro[3.3]heptan-2-yl]-[6-(4-methylsulfonylphenyl)-2-azaspiro[3.3]heptan-2-yl]methanone]: the IC50 was 15.7 nM.

`CS(=O)(=O)c1cc(C(F)(F)F)ccc1C1CC2(C1)CN(C(=O)N1CC3(CC(Cc4ccc(F)cc4F)C3)C1)C2` [Example 347, [6-[(2,4-difluorophenyl)methyl]-2-azaspiro[3.3]heptan-2-yl]-[6-[2-methylsulfonyl-4-(trifluoromethyl)phenyl]-2-azaspiro[3.3]heptan-2-yl]methanone] showed an IC50 of 833 nM.

`O=C(N1CC2(CC(Cc3ccc(Cl)cn3)C2)C1)N1CC2(C1)CN(c1cncc(F)c1)C2` [Example 348, [6-[(5-chloro-2-pyridyl)methyl]-2-azaspiro[3.3]heptan-2-yl]-[6-(5-fluoro-3-pyridyl)-2,6-diazaspiro[3.3]heptan-2-yl]methanone] had an IC50 of 66.3 nM.

Compound `CC(C)(C)Cn1nncc1-c1ccc(C2CN(C(=O)N3CC4(C3)CN(c3cncc(F)c3)C4)C2)cc1` [Example 349, [3-[4-[3-(2,2-dimethylpropyl)triazol-4-yl]phenyl]azetidin-1-yl]-[6-(5-fluoro-3-pyridyl)-2,6-diazaspiro[3.3]heptan-2-yl]methanone] displayed an IC50 of 11.9 nM.

In turn, `CS(=O)(=O)c1cc(Cl)ccc1-c1ccc(C2CN(C(=O)N3CC4(C3)CN(c3cncc(F)c3)C4)C2)cc1` [Example 350, [3-[4-(4-chloro-2-methylsulfonyl-phenyl)phenyl]azetidin-1-yl]-[6-(5-fluoro-3-pyridyl)-2,6-diazaspiro[3.3]heptan-2-yl]methanone] yielded an IC50 of 12.8 nM.

The compound `O=C(N1CC2(CC(n3cnc(C(F)(F)F)n3)C2)C1)N1CC2(CN(Cc3ccc(S(=O)(=O)C(F)(F)F)cc3)C2)C1` [Example 353, [6-[[4-(trifluoromethylsulfonyl)phenyl]methyl]-2,6-diazaspiro[3.3]heptan-2-yl]-[6-[3-(trifluoromethyl)-1,2,4-triazol-1-yl]-2-azaspiro[3.3]heptan-2-yl]methanone] had a 50% inhibitory concentration (IC50) of 2.4 nM.
